Measurements from BindingDB's records for doi:10.7270/Q2SB445M (Nmmlsc, 2009).

Molecular target: Ras-related protein Rab-7a (Canis lupus familiaris, UniProt P18067)
Assay: Rab7 GTP binding inhibitors, further analogs, SAR follow-up, biochemical, additional analogs, wildtype, multiplex bead flow cytometry (AID 2036)

Sequence of Ras-related protein Rab-7a (P18067 whole entry): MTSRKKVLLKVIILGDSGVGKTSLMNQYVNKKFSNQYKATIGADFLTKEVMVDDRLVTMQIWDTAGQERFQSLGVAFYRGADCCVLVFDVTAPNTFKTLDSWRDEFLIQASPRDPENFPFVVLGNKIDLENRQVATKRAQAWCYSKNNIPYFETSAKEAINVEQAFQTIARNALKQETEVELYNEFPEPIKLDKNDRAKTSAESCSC

Ki	SMILES
1560 nM	O=C1Nc2c(F)cccc2C1=C1Nc2ccccc2C1=O
870 nM	O=C1NC(=S)N/C1=C1\C(=O)Nc2ccccc21 [(3Z)-3-(5-oxo-2-sulfanylideneimidazolidin-4-ylidene)-1H-indol-2-one]
